# Data published in patent US20130295199A1, “Composition Comprising OPC and Omega-3 for Preventing and/or Inhibiting the Development of Diabetic Retinopathy” (VISIOTACT PHARMA, priority 2011, published 2013).
# Columns and labels:
# [1] = tested on: Type-1 streptozotocin-induced diabetic Sprague-Dawley rats; test: Streptozotocin-induced diabetic rat model: body weight, blood glucose, glycated hemoglobin; type: in vivo; details: STZ-induced diabetic Sprague-Dawley rats, after 90 days of treatment, n=20/group, mean +/- SEM
# Description: (§1) Sprague-Dawley rats (Harlan), weighing 75-100 g, were assigned to one of eight subgroups, based on non-diabetic, untreated diabetic and treated diabetic groups as indicated here-under. Sprague-Dawley rats were housed in a constant environment (room temperature (22.0±1.5)° C., room humidity (55±5) %) with a normal light-dark cycle (12-hour light, 12-hour dark). Diabetes was induced by intraperitoneal streptozotocin injection (75 mg/kg STZ, 10 mM citrate buffer, pH 4.5). Non-diabetic control animals received an equivalent dose of vehicle (citrate buffer at pH 4.6).
# To analyse the effect of the composition of the invention, animals are fed as followed:
# Diabetic and non-diabetic groups were examined biweekly to follow blood glucose and the body weight was recorded. 50 μL of whole blood was collected in potassium-EDTA tubes (Becton Dickinson) for subsequent analysis of glycated hemoglobin (GHb).
# [2] = tested on: retinal acellular capillaries; test: Quantitation of acellular capillaries in retina of diabetic animals; type: in vivo, rat; details: FIG. 5, result in words
# Description: as §1
# Evaluation of the retinal vasculature is done following adenosine diphosphatase (ADPase) activity in whole embedded retina. After overnight fixation in 2% PFA in 0.1 M cacodylate buffer at 4° C., an incision was made 2 mm posterior to the ora serrata, and the anterior segment of the eye was removed. […] The ADPase-incubated retina was washed in 0.1 M cacodylate buffer with 5% sucrose. […] Retinal microvascular density was quantified using Image J software.
# After TUNEL-positive cells were counted, coverslips were soaked off, and the retinal vasculature then was stained with hematoxylin-periodic acid-Schiff. Acellular capillaries were counted in four to seven field areas in the mid retina. […] Although counting the ghosts, at least 1000 capillary cells (endothelial cells and pericytes) were counted in five mid-retinal field areas. […]
# [3] = tested on: advanced glycation end product (AGE), retinal carboxymethyl-lysine; test: Retinal carboxymethyl-lysine measurement (AGE-product quantification), ELISA; type: in vivo, rat; details: STZ-induced diabetic Sprague-Dawley rats, after 90 days of treatment, n=20/group, mean +/- SEM
# Description: as §1
# Retinal samples were exposed to ultrasonic disruption in RIPA buffer. After tissue debris suppression by centrifugation, protein level of samples was measured using bicinchoninic acid (BCA) protein assay kit (Pierce). Sample (concentration: 50 μg/mL) or advanced glycation end product (AGE)-BSA standard (0 to 200 μM) diluted in 0.05% Tween 20 and 0.2% BSA in 75 mM PBS were placed in duplicate into 96-wells plate (Nunc C96 Maxisorp; eBioscience) coated with solid-phase antigen (1 μg/mL AGE-BSA). Anti-CML rabbit polyclonal antibody was added for 2 hours at room temperature and then washed in 0.2 mM KH2PO4, 1.4 mM K2HPO4, 3 mM NaCl, 0.45 μM sorbic acid potassium, and 0.01% Tween-20 buffer. […] Absorbance was measured at 450 nm on a microplate reader (Biorad).
substance,measurement,setting,value
docosahexaneoic acid (DHA) [Group G2],Body weight,[1],220 ± 10 g
same,GHb (glycated hemoglobin),[1],5.85 +/− 0.03%
same,Glucose,[1],525 ± 10 mg/dL
same,Capillary degeneration (degenerated acellular capillaries),[2],significantly inhibited
same,AGE (advanced glycation end product),[3],0.026 +/− 0.004 AU/mg
